This is an account of results in patent US5104897A, “Medical uses of halogen substituted diphenylsulfides” (Burroughs Wellcome Co., priority 1989, dated 1992).

What all share (assay type): biochemical
Assay [1] deals with Norepinephrine uptake (crude synaptosomal preparation). The assay is described as follows: Uptake of 3H-norepinephrine in crude synaptosomal preparations of rat hypothalamus and striatum. Particulars: [3H]1-norepinephrine, rat hypothalamus/striatum synaptosomes, 5 min preincubation, 3 min incubation, 37° C. minus 0° C. uptake; read-out: IC50 (Molar) for Inhibition of Biogenic Amine Uptake, Norepinephrine. The method, then:
(§1) Activity Studies Uptake of ^3 H-Biogenic Amines in Crude Synaptosomal Preparations of Rat Hypothalamus and Striatum.
(§2) A 0.5 mL aliquot of a crude synaptosomal preparation prepared according to the technique of Ferris et al., J. Pharm. Exp. Ther., 181, 407 (1972) and Patrick et al., J. Pharm. Exp. Ther., 241, 152 (1987) was incubated in a standard incubation medium containing 10 μM iproniazid, 1 μM ascorbate and […] of either [^3 H]dopamine, [^3 H]1-norepinephrine or [^3 H]serotonin. Final volumes were 3 mL.
(§3) All incubations were conducted for 3 minutes under an atmosphere of 95% O2 -5% CO2. The uptake at 0° C. and 37° C. was determined in each experiment and the difference between the two determinations represented the accumulation of [^3 H]amine by the temperature-dependent uptake process. Test compounds were dissolved in the standard incubation medium and preincubated with the crude synaptosomal preparation for 5 mintes, before the addition of the labeled substrate.
(§4) Reactions were stopped by the addition of 2 mL of ice-cold 0.32M sucrose containing 25 mM Tris buffer, pH 7.4, and rapid cooling in an ice-bath. Samples were centrifuged at 49,600×g for 10 minutes. The resulting pellet was washed with 5 mL of 0.9% saline and again centrifuged. […] A 1 mL aliquot of the supernatant was taken for determination of radioactivity.

The subject of assay [2] is Dopamine uptake (crude synaptosomal preparation). Description: Uptake of 3H-dopamine in crude synaptosomal preparations of rat hypothalamus and striatum. To be noted: at 10^-5 (Molar by title), rat synaptosomes, mean of triplicate assay with S.E.M. < ±5%. The method, then: as §1, §2, §3, §4
Assay [3] relates to Serotonin uptake (crude synaptosomal preparation). The assay is described as follows: Uptake of 3H-serotonin in crude synaptosomal preparations of rat hypothalamus and striatum. To be noted: rat hypothalamus/striatum synaptosomes, 5 min preincubation, 3 min incubation, 37° C. minus 0° C. uptake, read-out: IC50 (Molar) for Inhibition of Biogenic Amine Uptake, Serotonin. The method, then: as §1, §2, §3, §4

Turning to “5-Chloro-2-((2-((methylamino)methyl)phenyl)thio)benzyl Alcohol [Example 5]”, the half-maximal inhibitory concentration (IC50) (as a rule, the concentration that inhibits the measured activity by half) was found to be 0.11 µM in assay [1] and 0.021 µM in assay [3]. The “Percent inhibition of Dopamine uptake” value in assay [2] is listed as 38%.
Take `CN(C)Cc1ccccc1Sc1ccc(Cl)cc1CO.Cl` [Example 2, 5-chloro-2-((2-((dimethylamino)methyl)phenyl)thio)benzyl alcohol hydrochloride]: the IC50 in assay [1] came to 0.055 µM; in assay [3], 0.0021 µM. The “Percent inhibition of Dopamine uptake” value in assay [2] was 15%.
